Source: patent publication US9951028B2, “Agricultural chemicals” (REDAG CROP PROTECTION LTD, priority 2013, dated 2018)

Tests used:
Assay type in all cases: in vivo
[1] = system: garden cress, Lepidium sativum; experiment: Herbicidal efficacy screen, potter tower spray, necrosis assessed; details: 200 g/ha
Procedure: (§1) Compounds 22, 23 and 24 were screened for herbicidal efficacy against target plants: garden cress, Lepidium sativum, common chickweed, Stellaria media, and white mustard […] alba Plants were obtained as seeds and were grown to the 2-4 true leaf stage. Plants were grown under laboratory conditions, individually in seed trays. Each plant (in an approximately 3 cm diameter plug) was then detached from the tray for spraying. The compounds were screened at a range of five concentrations, diluted in acetone and TweenTM. A carrier only control was also conducted. Treatments were applied directly onto the plants, using a potter tower, at a specified application rate. One plant of each species was sprayed using a potter tower. The 3 different types of plants were placed on a 10 cm diameter platform directly beneath the potter sprayer and sprayed simultaneously. The growth of the plants and any Phytotoxicity effects were then assessed at intervals over 21 days, according to EPPO guideline PP1/135. Five replicas were performed for each treatment, for each species. In the tables below C represents a percentage increase in necrosis relative to the control of 0.1-50; B represents a percentage inhibition of 50-80; and A represents a percentage inhibition of 80-100.

[2] = system: white mustard Sinapsis alba; experiment: as above
Procedure: as §1

[3] = system: Capsella bursa-pastoris, (shepherd's-purse); experiment: Herbicidal efficacy screen, corrected necrosis
Procedure: (§2) Plants were obtained as seeds and were grown to the 2-4 true leaf stage. Plants were grown under laboratory conditions, individually in seed trays. Each plant (in an approximately 3 cm diameter plug) was then detached from the tray for spraying. The compounds were screened at a range of five concentrations, diluted in acetone and Tween™. A carrier only control was also conducted. Treatments were applied directly onto the plants, using a potter tower, at a specified application rate. One plant of each species was sprayed using a potter tower. The 3 different types of plants were placed on a 10 cm diameter platform directly beneath the potter sprayer and sprayed simultaneously. The growth of the plants and any Phytotoxicity effects were then assessed at intervals over 21 days, according to EPPO guideline PP1/135. In the tables below C represents a percentage increase in necrosis relative to the control of 0.1-50; B represents a percentage inhibition of 50-80; and A represents a percentage inhibition of 80-100. Certain compounds of the invention were screened for herbicidal efficacy against target plants: Amaranthus retroflexus (redroot pigweed), Abutilon theophrasti (China Jute): Capsella bursa-pastoris, (shepherd's-purse) Echinochloa crus-galli, Hordeum vulgare (Barley),

[4] = system: Amaranthus retroflexus (redroot pigweed); experiment: Herbicidal efficacy screen, corrected necrosis
Procedure: as §2

[5] = system: Abutilon theophrasti (China Jute); experiment: Herbicidal efficacy screen, corrected necrosis
Procedure: as §2

[6] = 12.5 g/ha, day 1 post application
[7] = 12.5 g/ha, day 7 post application
[8] = 25 g/ha, day 1 post application
[9] = 25 g/ha, day 7 post application
[10] = 50 g/ha, day 1 post application
[11] = 50 g/ha, day 7 post application
[12] = 100 g/ha, day 1 post application
[13] = 100 g/ha, day 7 post application
[14] = 6.25 g/ha, day 1 post application
[15] = 6.25 g/ha, day 7 post application

CC(C)C(C)S(=O)(=O)NCc1cc(-n2c(=O)cc(C(F)(F)F)n(C)c2=O)c(F)cc1Cl (centres unmarked) [Compound 24, N-[[2-Chloro-4-fluoro-5-[3-methyl-2,6-dioxo-4-(trifluoromethyl)pyrimidin-1-yl]phenyl]methyl]-3-methyl-butane-2-sulfonamide]
Average of necrosis ([1]; day 5 post application): C (C represents a percentage increase in necrosis relative to the control of 0.1-50) | Average of necrosis ([1]; day 7 post application): C (C represents a percentage increase in necrosis relative to the control of 0.1-50) | Average of necrosis ([1]; day 10 post application): B (B represents a percentage inhibition of 50-80) | Average of necrosis [2, 6]: C (C represents a percentage increase in necrosis relative to the control of 0.1-50) | Average of necrosis ([2]; 12.5 g/ha, day 2 post application): C (C represents a percentage increase in necrosis relative to the control of 0.1-50) | Average of necrosis ([2]; 12.5 g/ha, day 3 post application): C (C represents a percentage increase in necrosis relative to the control of 0.1-50) | Average of necrosis ([2]; 12.5 g/ha, day 4 post application): C (C represents a percentage increase in necrosis relative to the control of 0.1-50) | Average of necrosis ([2]; 12.5 g/ha, day 5 post application): C (C represents a percentage increase in necrosis relative to the control of 0.1-50) | Average of necrosis [2, 7]: C (C represents a percentage increase in necrosis relative to the control of 0.1-50) | Average of necrosis ([2]; 12.5 g/ha, day 10 post application): C (C represents a percentage increase in necrosis relative to the control of 0.1-50) | Average of necrosis [2, 8]: C (C represents a percentage increase in necrosis relative to the control of 0.1-50) | Average of necrosis ([2]; 25 g/ha, day 2 post application): C (C represents a percentage increase in necrosis relative to the control of 0.1-50) | Average of necrosis ([2]; 25 g/ha, day 3 post application): C (C represents a percentage increase in necrosis relative to the control of 0.1-50) | Average of necrosis ([2]; 25 g/ha, day 4 post application): C (C represents a percentage increase in necrosis relative to the control of 0.1-50) | Average of necrosis ([2]; 25 g/ha, day 5 post application): C (C represents a percentage increase in necrosis relative to the control of 0.1-50) | Average of necrosis [2, 9]: C (C represents a percentage increase in necrosis relative to the control of 0.1-50) | Average of necrosis ([2]; 25 g/ha, day 10 post application): C (C represents a percentage increase in necrosis relative to the control of 0.1-50) | Average of necrosis [2, 10]: C (C represents a percentage increase in necrosis relative to the control of 0.1-50) | Average of necrosis ([2]; 50 g/ha, day 2 post application): C (C represents a percentage increase in necrosis relative to the control of 0.1-50) | Average of necrosis ([2]; 50 g/ha, day 3 post application): C (C represents a percentage increase in necrosis relative to the control of 0.1-50) | Average of necrosis ([2]; 50 g/ha, day 4 post application): C (C represents a percentage increase in necrosis relative to the control of 0.1-50) | Average of necrosis ([2]; 50 g/ha, day 5 post application): C (C represents a percentage increase in necrosis relative to the control of 0.1-50) | Average of necrosis [2, 11]: C (C represents a percentage increase in necrosis relative to the control of 0.1-50) | Average of necrosis ([2]; 50 g/ha, day 10 post application): C (C represents a percentage increase in necrosis relative to the control of 0.1-50) | Average of necrosis [2, 12]: C (C represents a percentage increase in necrosis relative to the control of 0.1-50) | Average of necrosis ([2]; 100 g/ha, day 2 post application): C (C represents a percentage increase in necrosis relative to the control of 0.1-50) | Average of necrosis ([2]; 100 g/ha, day 3 post application): C (C represents a percentage increase in necrosis relative to the control of 0.1-50) | Average of necrosis ([2]; 100 g/ha, day 4 post application): C (C represents a percentage increase in necrosis relative to the control of 0.1-50) | Average of necrosis ([2]; 100 g/ha, day 5 post application): C (C represents a percentage increase in necrosis relative to the control of 0.1-50) | Average of necrosis [2, 13]: C (C represents a percentage increase in necrosis relative to the control of 0.1-50) | Average of necrosis ([2]; 100 g/ha, day 10 post application): C (C represents a percentage increase in necrosis relative to the control of 0.1-50) | Average of necrosis ([2]; 200 g/ha, day 1 post application): C (C represents a percentage increase in necrosis relative to the control of 0.1-50) | Average of necrosis ([2]; 200 g/ha, day 2 post application): C (C represents a percentage increase in necrosis relative to the control of 0.1-50) | Average of necrosis ([2]; 200 g/ha, day 3 post application): C (C represents a percentage increase in necrosis relative to the control of 0.1-50) | Average of necrosis ([2]; 200 g/ha, day 4 post application): C (C represents a percentage increase in necrosis relative to the control of 0.1-50) | Average of necrosis ([2]; 200 g/ha, day 5 post application): C (C represents a percentage increase in necrosis relative to the control of 0.1-50) | Average of necrosis ([2]; 200 g/ha, day 7 post application): C (C represents a percentage increase in necrosis relative to the control of 0.1-50) | Average of necrosis ([2]; 200 g/ha, day 10 post application): C (C represents a percentage increase in necrosis relative to the control of 0.1-50) | Average of corrected necrosis [3, 14]: C (C represents a percentage increase in necrosis relative to the control of 0.1-50) | Average of corrected necrosis [3, 15]: A (A represents a percentage inhibition of 80-100) | Average of corrected necrosis [3, 6]: 0% | Average of corrected necrosis [3, 7]: B (B represents a percentage inhibition of 50-80) | Average of corrected necrosis [3, 8]: C (C represents a percentage increase in necrosis relative to the control of 0.1-50) | Average of corrected necrosis [3, 9]: A (A represents a percentage inhibition of 80-100) | Average of corrected necrosis [3, 10]: C (C represents a percentage increase in necrosis relative to the control of 0.1-50) | Average of corrected necrosis [3, 11]: A (A represents a percentage inhibition of 80-100) | Average of corrected necrosis [3, 12]: C (C represents a percentage increase in necrosis relative to the control of 0.1-50) | Average of corrected necrosis [3, 13]: A (A represents a percentage inhibition of 80-100) | Average of corrected necrosis [4, 14]: C (C represents a percentage increase in necrosis relative to the control of 0.1-50) | Average of corrected necrosis [4, 15]: A (A represents a percentage inhibition of 80-100) | Average of corrected necrosis [4, 6]: C (C represents a percentage increase in necrosis relative to the control of 0.1-50) | Average of corrected necrosis [4, 7]: A (A represents a percentage inhibition of 80-100) | Average of corrected necrosis [4, 8]: C (C represents a percentage increase in necrosis relative to the control of 0.1-50) | Average of corrected necrosis [4, 9]: A (A represents a percentage inhibition of 80-100) | Average of corrected necrosis [4, 10]: C (C represents a percentage increase in necrosis relative to the control of 0.1-50) | Average of corrected necrosis [4, 11]: A (A represents a percentage inhibition of 80-100) | Average of corrected necrosis [4, 12]: C (C represents a percentage increase in necrosis relative to the control of 0.1-50) | Average of corrected necrosis [4, 13]: A (A represents a percentage inhibition of 80-100) | Average of corrected necrosis [5, 14]: 0% | Average of corrected necrosis [5, 15]: A (A represents a percentage inhibition of 80-100) | Average of corrected necrosis [5, 6]: 0% | Average of corrected necrosis [5, 7]: A (A represents a percentage inhibition of 80-100) | Average of corrected necrosis [5, 8]: 0% | Average of corrected necrosis [5, 9]: A (A represents a percentage inhibition of 80-100) | Average of corrected necrosis [5, 10]: 0% | Average of corrected necrosis [5, 11]: A (A represents a percentage inhibition of 80-100) | Average of corrected necrosis [5, 12]: C (C represents a percentage increase in necrosis relative to the control of 0.1-50) | Average of corrected necrosis [5, 13]: A (A represents a percentage inhibition of 80-100)
